Among the data in patent publication US4521422A, “Aryl and heteroaryl[7-(aryl and heteroaryl)pyrazolo[1,5-a]pyrimidin-3-yl]methanones” (American Cyanamid Company, priority 1984, dated 1985) are responders values, retold here.

The test system of the assay is Clonic Seizures Caused by Pentylenetetrazole in Rats. The experiment in a line: Protection against clonic seizures caused by pentylenetetrazole in rats. The following applies: Rattus norvegicus; dose 25.0 mg/kg, oral or i.p.; pentylenetetrazole 23 mg/kg i.v. at 30 or 60 min; read-out: % of Rats Protected. Type of assay: in vivo. As to the method: The anti-anxiety and anticonvulsant properties of the novel compounds of the present invention have been established in a test which indicates anxiolytic and antiepileptic activity by the measure of protection from convulsions resulting from the administration of pentylenetetrazole. Single or graded dose levels of the test compounds were administered orally or intraperitoneally in a 2% starch vehicle, containing 0.5% v/v polyethylene glycol and one drop of Polysorbate 80 to groups of at least 4 rats. At 30 or 60 minutes, the rats were treated intravenously with pentylenetetrazole at a dose of 23 mg/kg of body weight. This dose is estimated to cause clonic seizures in 99% of unprotected rats. It has been reported [R. T. Hill and D. H. Tedeschi, "Animal Testing and Screening Procedures in Evaluating Psychotropic Drugs" in "An Introduction to Psychopharmacology", Eds. R. R. Rech and K. E. Moore, Raven Press, New York, pp 237-288 (1971)] that there is a high degree of correlation between antagonism of pentylenetetrazole seizures in rats and anti-anxietyor anticonvulsant effects in higher warm-blooded animals.
`O=C(c1ccc2c(c1)OCO2)c1cnn2c(-c3ccncc3)ccnc12` [1,3-benzodioxol-5-yl[7-(4-pyridinyl)pyrazolo[1,5-a]pyrimidin-3-yl]methanone]: the responders at 25 mg/kg was 25%. For `O=C(c1ccc2ccccc2c1)c1cnn2c(-c3cccnc3)ccnc12` [2-naphthalenyl[7-(3-pyridinyl)pyrazolo[1,5-a]pyrimidin-3-yl]methanone] the value was 25%; for `O=C(c1ccccn1)c1cnn2c(-c3ccc(C(F)(F)F)cc3)ccnc12` [2-pyridinyl[7-[4-(trifluoromethyl)phenyl]pyrazolo[1,5-a]pyrimidin-3-yl]methanone], 25%. Take `O=C(c1cccs1)c1cnn2c(-c3ccc(C(F)(F)F)cc3)ccnc12` [2-thienyl[7-[4-(trifluoromethyl)phenyl]pyrazolo[1,5-a]pyrimidin-3-yl]methanone]: the responders at 25 mg/kg was 25%. Regarding `O=C(c1ccsc1)c1cnn2c(-c3cccc(C(F)(F)F)c3)ccnc12` [3-thienyl[7-[3-(trifluoromethyl)phenyl]pyrazolo[1,5-a]pyrimidin-3-yl]methanone], the responders at 25 mg/kg amounted to 75%.

Regarding `N#Cc1ccc(-c2ccnc3c(C(=O)c4ccc(F)cc4)cnn23)cc1` [4-[3-(4-fluorobenzoyl)pyrazolo[1,5-a]pyrimidin-7-yl]benzonitrile], the responders at 25 mg/kg was 50%. For the molecule `O=C(c1cc(Cl)ccc1Cl)c1cnn2c(-c3cccnc3)ccnc12` [(2,5-dichlorophenyl)[7-(3-pyridinyl)pyrazolo[1,5-a]pyrimidin-3-yl]methanone], the responders at 25 mg/kg is 25%. With `O=C(c1cc(Cl)ccc1Cl)c1cnn2c(-c3ccc(F)cc3)ccnc12` [(2,5-dichlorophenyl)[7-(4-fluorophenyl)pyrazolo[1,5-a]pyrimidin-3-yl]methanone], the responders at 25 mg/kg amounted to 25%. For `O=C(c1cc(Cl)ccc1Cl)c1cnn2c(-c3ccncc3)ccnc12` [(2,5-dichlorophenyl)[7-(4-pyridinyl)pyrazolo[1,5-a]pyrimidin-3-yl]methanone] the value was 25%; for `O=C(c1ccccc1Cl)c1cnn2c(-c3ccncc3)ccnc12` [(2-chlorophenyl)[7-(4-pyridinyl)pyrazolo[1,5-a]pyrimidin-3-yl]methanone], 25%; for `COc1ccccc1C(=O)c1cnn2c(-c3cccnc3)ccnc12` [(2-methoxyphenyl)[7-(3-pyridinyl)pyrazolo[1,5-a]pyrimidin-3-yl]methanone], 75%. For `Cc1ccccc1C(=O)c1cnn2c(-c3cccnc3)ccnc12` [(2-methylphenyl)[7-(3-pyridinyl)pyrazolo[1,5-a]pyrimidin-3-yl]methanone], the responders at 25 mg/kg came to 25%. As for `Cc1ccccc1C(=O)c1cnn2c(-c3ccncc3)ccnc12` [(2-methylphenyl)[7-(4-pyridinyl)pyrazolo[1,5-a]pyrimidin-3-yl]methanone], the responders at 25 mg/kg was determined as 25%. For `Cc1ccccc1C(=O)c1cnn2c(-c3ccc(C(F)(F)F)cc3)ccnc12` [(2-methylphenyl)[7-[4-(trifluoromethyl)phenyl]pyrazolo[1,5-a]pyrimidin-3-yl]methanone] the value was 25%; for `COc1ccc(C(=O)c2cnn3c(-c4cc(OC)c(OC)c(OC)c4)ccnc23)cc1OC` [(3,4-dimethoxyphenyl)[7-(3,4,5-trimethoxyphenyl)pyrazolo[1,5-a]pyrimidin-3-yl]methanone], 75%; for `COc1ccc(C(=O)c2cnn3c(-c4ccncc4)ccnc23)cc1OC` [(3,4-dimethoxyphenyl)[7-(4-pyridinyl)pyrazolo[1,5-a]pyrimidin-3-yl]methanone], 50%.

`O=C(c1cccc(Cl)c1)c1cnn2c(-c3cccnc3)ccnc12` [(3-chlorophenyl)[7-(3-pyridinyl)pyrazolo[1,5-a]pyrimidin-3-yl]methanone]: the responders at 25 mg/kg was 50%. For `O=C(c1cccc(Cl)c1)c1cnn2c(-c3ccc(F)cc3)ccnc12` [(3-chlorophenyl)[7-(4-fluorophenyl)pyrazolo[1,5-a]pyrimidin-3-yl]methanone] the value was 25%. Turning to `O=C(c1cccc(Cl)c1)c1cnn2c(-c3ccncc3)ccnc12` [(3-chlorophenyl)[7-(4-pyridinyl)pyrazolo[1,5-a]pyrimidin-3-yl]methanone], the responders at 25 mg/kg was determined as 50%. Regarding `COc1cccc(C(=O)c2cnn3c(-c4ccncc4)ccnc23)c1` [(3-methoxyphenyl)[7-(4-pyridinyl)pyrazolo[1,5-a]pyrimidin-3-yl]methanone], the responders at 25 mg/kg was found to be 50%. For `Cc1cccc(C(=O)c2cnn3c(-c4ccncc4)ccnc23)c1` [(3-methylphenyl)[7-(4-pyridinyl)pyrazolo[1,5-a]pyrimidin-3-yl]methanone] the value was 100%; for `COc1ccc(C(=O)c2cnn3c(-c4ccc[n+]([O-])c4)ccnc23)cc1` [(4-Methoxyphenyl)[7-(3-pyridinyl)pyrazolo[1,5-a]pyrimidin-3-yl]methanone, pyridine-1-oxide], 25%; for `Cc1cc(-c2cccc(C(F)(F)F)c2)n2ncc(C(=O)c3ccc(Cl)cc3)c2n1` [(4-chlorophenyl)[5-methyl-7-[3-(trifluoromethyl)phenyl]pyrazolo[1,5-a]pyrimidin-3-yl]methanone], 25%. For `CCOc1ccc(C(=O)c2cnn3c(-c4cccnc4)ccnc23)cc1` [(4-ethoxyphenyl)[7-(3-pyridinyl)pyrazolo[1,5-a]pyrimidin-3-yl]methanone] the value was 25%; for `Cc1cc(-c2cccc(C(F)(F)F)c2)n2ncc(C(=O)c3ccc(F)cc3)c2n1` [(4-fluorophenyl)[5-methyl-7-[3-(trifluoromethyl)phenyl]pyrazolo[1,5-a]pyrimidin-3-yl]methanone], 25%; for `Cc1cnc2c(C(=O)c3ccc(F)cc3)cnn2c1-c1cccnc1` [(4-fluorophenyl)[6-methyl-7-(3-pyridinyl)pyrazolo[1,5-a]pyrimidin-3-yl]methanone], 75%.

`O=C(c1ccc(F)cc1)c1cnn2c(-c3ccc(C(F)(F)F)cc3)ccnc12` [(4-fluorophenyl)[7-[4-(trifluoromethyl)phenyl]pyrazolo[1,5-a]pyrimidin-3-yl]methanone]: the responders at 25 mg/kg was 50%. As to `COc1ccc(C(=O)c2cnn3c(-c4ccncc4)ccnc23)cc1` [(4-methoxyphenyl)[7-(4-pyridinyl)pyrazolo[1,5-a]pyrimidin-3-yl]methanone], the responders at 25 mg/kg was determined as 25%. With `Cc1ccc(C(=O)c2cnn3c(-c4cccnc4)ccnc23)s1` [(5-methyl-2-thienyl)[7-(3-pyridinyl)pyrazolo[1,5-a]pyrimidin-3-yl]methanone], the responders at 25 mg/kg was determined as 25%.

Regarding `O=C(c1ccccc1)c1cnn2c(-c3ccc[n+]([O-])c3)ccnc12` [Phenyl[7-(3-pyridinyl)pyrazolo[1,5-a]pyrimidin-3-yl]methanone, pyridine-1-oxide], the responders at 25 mg/kg is 25%.

Consider `Cc1nn2c(-c3ccncc3)ccnc2c1C(=O)c1ccccc1` [[2-methyl-7-(4-pyridinyl)pyrazolo[1,5-a]pyrimidin-3-yl]phenylmethanone], for which the responders at 25 mg/kg turned out to be 25%. Consider `CN(C)c1ccc(C(=O)c2cnn3c(-c4ccncc4)ccnc23)cc1` [[4-(dimethylamino)phenyl][7-(4-pyridinyl)pyrazolo[1,5-a]pyrimidin-3-yl]methanone], for which the responders at 25 mg/kg stood at 75%.

As to `O=C(c1ccc(C(F)(F)F)cc1)c1cnn2c(-c3ccc(C(F)(F)F)cc3)ccnc12` [[4-(trifluoromethyl)phenyl][7-[4-(trifluoromethyl)phenyl]pyrazolo[1,5-a]pyrimidin-3-yl]methanone], the responders at 25 mg/kg stood at 25%. With `Cc1cnc2c(C(=O)c3ccccc3)cnn2c1-c1cccc(C(F)(F)F)c1` [[6-methyl-7-[3-(trifluoromethyl)phenyl]pyrazolo[1,5-a]pyrimidin-3-yl]phenylmethanone] the figure was 25%; with `O=C(c1ccc(C(F)(F)F)cc1)c1cnn2c(-c3ccc(Cl)c(Cl)c3)ccnc12` [[7-(3,4-dichlorophenyl)pyrazolo[1,5-a]pyrimidin-3-yl][4-(trifluoromethyl)phenyl]methanone], 50%; with `O=C(c1cccs1)c1cnn2c(-c3cccc(F)c3)ccnc12` [[7-(3-fluorophenyl)pyrazolo[1,5-a]pyrimidin-3-yl]-2-thienylmethanone], 25%. `COc1cc(C(=O)c2cnn3c(-c4cccnc4)ccnc23)cc(OC)c1OC` [[7-(3-pyridinyl)pyrazolo[1,5-a]pyrimidin-3-yl](3,4,5-trimethoxyphenyl)methanone]: the responders at 25 mg/kg is 25%. With `COc1ccccc1C(=O)c1cnn2c(-c3ccc(F)cc3)ccnc12` [[7-(4-fluorophenyl)pyrazolo[1,5-a]pyrimidin-3-yl](2-methoxyphenyl)methanone], the responders at 25 mg/kg was 50%.

In the case of `O=C(c1ccncc1)c1cnn2c(-c3ccc(F)cc3)ccnc12` [[7-(4-fluorophenyl)pyrazolo[1,5-a]pyrimidin-3-yl]-4-pyridinylmethanone], the responders at 25 mg/kg is 75%. As for `O=C(c1cccc(C(F)(F)F)c1)c1cnn2c(-c3ccc(F)cc3)ccnc12` [[7-(4-fluorophenyl)pyrazolo[1,5-a]pyrimidin-3-yl][3-(trifluoromethyl)phenyl]methanone], the responders at 25 mg/kg was 25%.
